The source of these data is BindingDB's records for patent US11691989 (Ascentage Pharma (Suzhou), 2023).

pIC50: −log10 of the molar value.

One may read the pIC50 as the IC50 on a negative log10 scale, so that one unit is a factor of ten.

The assay addresses T1, Induced myeloid leukemia cell differentiation protein Mcl-1 [171-323] (Homo sapiens, UniProt Q07820).
T1 construct: 171-323
As to the kind of experiment: Inhibition of Mcl-1 by fluorescence polarization (FP) assay. As to the method: The relative binding potency of representative Compounds of the Disclosure was determined by a fluorescence polarization (FP) assay. The method used a fluorescein labelled peptide (FAM-Bid) which binds to the Mcl-1 protein leading to an increased anisotropy measured in milli-polarization (mP) values using a plate reader. […] A 10-points serial dilution of each compound was prepared in DMSO and 5 μL solution was transferred into flat bottomed, 96-well back plate (final DMSO concentration […]). 120 μL of Buffer (PBS, 0.01% BGG (Sigma Cat. #SRE0011), 0.01% Triton X-100), containing the Fluorescein labelled peptide (Final concentration 2 nM) and Mcl-1 protein (final concentration 20 nM) was then added. […] 10-points dose response curves were plotted with GraphPad software using Sigmoidal Dose-Response Model and the IC50 values were determined by nonlinear regression fitting of the competition curves.
For orientation: Fluorescence polarisation rises when a labelled molecule tumbles more slowly, as on binding a larger partner.

T1 sequence (Q07820 171-323): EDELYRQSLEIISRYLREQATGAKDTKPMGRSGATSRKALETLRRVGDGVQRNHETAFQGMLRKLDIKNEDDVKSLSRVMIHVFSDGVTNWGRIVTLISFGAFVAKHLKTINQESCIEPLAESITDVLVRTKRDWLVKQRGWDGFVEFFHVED

`Cc1c2c(nn1C)CSCc1cc(n(C)n1)CSc1cc(c3ccc(F)cc3c1)OCCCn1c(C(=O)O)cc3c-2c(Cl)ccc31` [US11691989, Compound 13]: the negative logarithm of the IC50 (pIC50) is 7.72. In the case of `Cc1c(C(=O)O)n2c3ccc(Cl)c(c13)-c1c(nn(C)c1C)CSCc1cc(n(C(C)C)n1)CSc1cc(c3ccc(F)cc3c1)OCCC2` [US11691989, Compound 17] it was 7.82.
